For test [1], the system named is HFD-fed mice. In words: Body weight, epididymal fat pad weight and leptin in 60% fat diet mice given antidiabetic drug with or without cell transplant (Example 6). The class given is in vivo, mouse (SCID-beige). Particulars: for circulating leptin levels: 60% fat diet, drug combined with cell transplant vs respective sham controls on the same drug, 20 weeks post-transplant. An excerpt: Male SCID-beige mice (C.B-Igh-1b/GbmsTac-Prkdcscid-LystbgN7, 8-10 weeks old; Taconic™) were maintained on a 12 hr light/dark cycle throughout the study. All experiments were approved by the UBC Animal Care Committee and carried out in accordance with the Canadian Council on Animal Care guidelines.
(§1) In the second cohort, mice were placed on either the 10% fat control diet (D12450K; n=8) for the duration of the study of 60% fat diet (D12492; n=64) for 6 weeks, followed by one of the following treatment regimens for the remainder of the study (n=16 per group): (1) 60% fat diet with no drug (D12492), (2) 60% fat diet containing rosiglitazone (18 mg/kg diet or ˜3 mg/kg BW per day; Cayman Chemical™; Research Diets™ custom diet formulation D08121002), (3) 60% fat diet containing sitagliptin (4 g/kg diet or ˜750 mg/kg BW per day; sitagliptin phosphate monohydrate, BioVision™; Research Diets™ custom diet formulation D08062502R), or (4) 60% fat diet (D12492) and metformin (1,1-dimethylbiguanide hydrochloride) in drinking water (1.25 mg/ml or ˜250 mg/kg BW per day).
The procedure used for transplantation of macro-encapsulated pancreatic progenitor cells was as follows. Similar transplantation of macro-encapsulated pancreatic endocrine precursor cells or insulin-producing cells was described in Rezania et al. 2014, Pagliucca et al. 2014 and Agulnick A. D. et al. 2015. All mice were anaesthetized with inhalable isoflurane and transplant recipients received ˜5×10^6 hESC-derived pancreatic progenitor cells subcutaneously (s.c.) within a 20 1 TheraCyte™ macroencapsulation device (TheraCyte Inc.™, Laguna Hills, Calif.) on the right flank, as previously described (Bruin et al., 2013). Sham mice received the same surgical procedure, but no macroencapsulation device was implanted. In the first cohort, mice were randomly assigned to receive either a cell transplant (Tx, n=7 per diet) or sham surgery (sham, n=4 per diet) after 7 weeks of LFD or HFD feeding. […]
All metabolic analyses were performed in conscious, restrained mice and blood samples were collected via the saphenous vein. BW and blood glucose levels were assessed regularly throughout each study following a 4-hr morning fast. […]
Glucose tolerance tests (GTTs) were performed following a 6-hour morning fast and administration of glucose by oral gavage or intraperitoneal (i.p.) injection (2 glucose/kg BW, 30% solution; Vétoquinol™, Lavaltrie, QC). Glucose-stimulated human C-peptide secretion from engrafted cells was assessed following an overnight fast and an i.p. injection of glucose (2 g/kg). […] Blood glucose levels were measured using a handheld glucometer (Lifescan™; Burnaby, Canada). […]

For test [2], the system named is HFD-fed mice. In words: Fasting blood glucose and oral glucose tolerance test in 60% fat diet mice given antidiabetic drug with or without cell transplant (Example 6). The class given is in vivo, mouse (SCID-beige). Particulars: for glucose tolerance (oral glucose tolerance test): HFD-fed mice, cell therapy combined with the drug. As for the experimental part: as §1
(§2) The procedure used for transplantation of macro-encapsulated pancreatic progenitor cells was as follows. Similar transplantation of macro-encapsulated pancreatic endocrine precursor cells or insulin-producing cells was described in Rezania et al. 2014, Pagliucca et al. 2014 and Agulnick A. D. et al. 2015. All mice were anaesthetized with inhalable isoflurane and transplant recipients received ˜5×10^6 hESC-derived pancreatic progenitor cells subcutaneously (s.c.) within a 20 1 TheraCyte™ macroencapsulation device (TheraCyte Inc.™, Laguna Hills, Calif.) on the right flank, as previously described (Bruin et al., 2013). Sham mice received the same surgical procedure, but no macroencapsulation device was implanted. In the first cohort, mice were randomly assigned to receive either a cell transplant (Tx, n=7 per diet) or sham surgery (sham, n=4 per diet) after 7 weeks of LFD or HFD feeding. In the second cohort, HFD-fed mice (+/−drug treatment) received either a transplant (n=8 per group) or sham surgery (n=8 per group) 1 week after administration of the antidiabetic drugs. LFD controls all received sham surgery.
All metabolic analyses were performed in conscious, restrained mice and blood samples were collected via the saphenous vein. BW and blood glucose levels were assessed regularly throughout each study following a 4-hr morning fast. For all other metabolic tests, blood was collected after fasting (time 0) and at the indicated time points following administration of various secretagogues.
(§3) Glucose tolerance tests (GTTs) were performed following a 6-hour morning fast and administration of glucose by oral gavage or intraperitoneal (i.p.) injection (2 glucose/kg BW, 30% solution; Vétoquinol™, Lavaltrie, QC). Glucose-stimulated human C-peptide secretion from engrafted cells was assessed following an overnight fast and an i.p. injection of glucose (2 g/kg). […] Blood glucose levels were measured using a handheld glucometer (Lifescan™; Burnaby, Canada). Mouse hormone and lipid profiles were assessed in plasma using the following kits: leptin (Mouse Leptin ELISA, Crystal ChemInc.™, Downers Grove, Ill.), insulin (Ultrasensitive Mouse Insulin ELISA, Alpco Diagnostics™, Salem, N.H.), C-peptide (Mouse C-peptide ELISA, Alpco Diagnostics™), triglycerides (Serum Triglyceride kit, Sigma-Aldrich™), free fatty acids (NEFA-HR(2) kit, Wako Chemical™, Richmond, Va.) and cholesterol (Cholesterol E™ kit, Wako Chemical™). Hormone secretion from engrafted hESC-derived cells was assessed by measuring plasma human C-peptide (C-peptide ELISA, 80-CPTHU-E01.1; Alpco Diagnostics™) and human insulin and glucagon levels (K15160C-2; Meso Scale Discovery™, Gaithersburg, Md.). […]

In test [3] the test system is HFD-fed mice. In words: Mouse and human C-peptide after intraperitoneal glucose challenge (Example 6). In kind it is in vivo, mouse (SCID-beige). As to conditions: drug plus cell transplant vs respective sham controls; for reduction of fasting mouse C-peptide levels: 4 weeks post-transplant; for fasting mouse C-peptide levels: 16 weeks post-transplant.
Source text: as §2
as §3, with “g/kg). Insulin tolerance tests (ITTs) were performed following a 4-hour morning fast and administration of human synthetic insulin (0.7 IU/kg body weight; Novolin Ge™ Toronto, Novo Nordisk™, Mississaugua, Canada).” for “g/kg).”, “Md.). Hemoglobin A1c (HbA1c) levels were measured with a Siemens DCA 200 Vantage Analyzer™ (Siemens Healthcare Diagnostics™, Tarrytown, N.Y.) from whole blood collected from the saphenous vein with EDTA as an anticoagulant.” for “Md.).”

A further test deals with pancreatic regeneration. Particulars: ductal ligation model; cited from earlier work.
The conditions of test [4]: under the conditions tested; cited from earlier work.
[5] abbreviates: 12 weeks post-transplant, drug with the cell therapy.

Regarding `CN(C)C(=N)NC(=N)N.Cl` [metformin, 1,1-dimethylbiguanide hydrochloride], the circulating leptin levels result in the test with HFD-fed mice [1] is on record as “significantly reduced”. Moreover, the “glucose tolerance (oral glucose tolerance test)” value with HFD-fed mice [2] (12 weeks post-transplant) is reported as “significantly improved”. For the same compound, in the test with HFD-fed mice [3], the “reduction of fasting mouse C-peptide levels” value is listed as “not yet evident” and the “fasting mouse C-peptide levels” value is given as “significantly reduced”.
For the compound `CN(CCOc1ccc(CC2SC(=O)NC2=O)cc1)c1ccccn1` (stereo not shown) [rosiglitazone], the circulating leptin levels result in the test on HFD-fed mice [1] is reported as “no effect”.
Consider `N[C@@H](CC(=O)N1CCn2c(nnc2C(F)(F)F)C1)Cc1cc(F)c(F)cc1F` [sitagliptin, sitagliptin phosphate monohydrate], for which, in the test on HFD-fed mice [1], the circulating leptin levels entry was “significantly reduced”. The weight loss entry in the test with HFD-fed mice [1] (cells transplanted in combination with the drug, compared with other groups) is on record as “the most weight loss was observed”. In addition, in the test with HFD-fed mice [2] (12 weeks post-transplant), the “glucose tolerance (oral glucose tolerance test)” value is listed as “significantly improved”. In the test with HFD-fed mice [2] (setting [5]), the “glycemic control during an oral glucose challenge compared with LFD controls” value was “indistinguishable” and the “peak glucose level at 15 minutes post-gavage compared with LFD controls” value was “marginally higher”. Moreover, the glucose tolerance entry in the test with HFD-fed mice [2] (drug on its own, without cell transplant) is on record as “mild reduction in glucose tolerance”. Also, in the test with HFD-fed mice [3], the “reduction of fasting mouse C-peptide levels” value is “not yet evident” and the “fasting mouse C-peptide levels” value is “significantly reduced”.
Consider `C=CC[C@@H]1/C=C(\C)C[C@H](C)C[C@H](OC)[C@H]2O[C@@](O)(C(=O)C(=O)N3CCCC[C@H]3C(=O)O[C@H](/C(C)=C/[C@@H]3CC[C@@H](O)[C@H](OC)C3)[C@H](C)[C@@H](O)CC1=O)[C@H](C)C[C@@H]2OC` [tacrolimus], for which the pancreatic regeneration result in the test with pancreatic regeneration is listed as “block pancreatic regeneration”.
Consider “exendin-4: anti-diabetic medicine examined earlier for short term effect (Bruin et al. 2013)”, for which, in test [4], the short term effect entry was “without significant effect”.
As for “insulin: anti-diabetic medicine examined earlier for short term effect (Bruin et al. 2013)”, the short term effect result in test [4] was “without significant effect”.

These data come from patent US10772917B2, “Pancreatic endocrine progenitor cell therapies for the treatment of obesity and type 2 diabetes (T2D)” (THE UNIVERSITY OF BRITISH COLUMBIA, priority 2015, dated 2020).
